From patent publication US10098900B2, “Pharmaceutical compositions and their use for treatment of cancer and autoimmune diseases” (ZHEJIANG DTRM BIOPHARMA CO. LTD., priority 2015, dated 2018)

Tests used:
TMD-8 cell line = assay: Inhibition assay of tumor cell activity (cell viability), TMD-8; assay type: cell-based, human; conditions: individual compound; for Inh % on TMD-8 cell line (AVG): 48 h
Protocol: Inhibition Assay of Tumor Cell Activity:
Tumor cells (TMD-8, DoHH2 and WSU-DLCL2) were transferred and attached to 96-well plates. After one night, blank buffer and selected concentrations (0.01 nM-100 μM) of the test compound solution were added. After 48 hours incubation, CellTiter-Go was added to lyse the cells. Recording luminescent signal and calculate the percent inhibition of cell viability

WSU-DLCL2 xenograft = assay: Inhibition of tumor growth in vivo, resistant WSU-DLCL2 SCID mouse model; conditions: for Antitumor effect (%): WSU-DLCL2, Oral, BID
Protocol: Inhibition Study of Tumor Growth In Vivo:
SCID mice or nude mice (weighing about 18 g at the beginning of the experiment) were randomly divided into groups by the software in order to achieve close average weights between groups and control the bias within the allowable range. The mice were injected BTK cell lines (TMD-8, WSU-DLCL2 and DoHH-2) for tumor formation. […] Body weights and tumor volume were recorded.
Xenograft Tumor Models Inoculated with TMD-8, or DoHH2, or WSU-DLCL2 Tumor Cell Lines:
TMD-8 is a sensitive human diffuse large B-cell lymphoma cell line, and DoHH2 is a more difficult to treat human follicular lymphoma cell line, while WSU-DLCL2 is a multi-drug resistant (MDR) human non-Hodgkin's lymphoma cell line.
The TMD-8, DoHH2, WSU-DLCL2 tumor cells were maintained in vitro as a suspension culture in RPMI-1640 medium supplemented with 10% heat inactivated fetal calf serum at 37° C. in an atmosphere of 5% CO2 in air. The tumor cells were routinely subcultured twice weekly. The cells growing in an exponential growth phase were harvested and counted for tumor inoculation. Each mouse was inoculated subcutaneously at the right flank with the tumor cells (10×10^6) in 0.2 ml of PBS with Matrigel (1:1) for tumor development. The treatments were started after the average tumor size reached approximately 100-200 mm^3. Each group consisted of 6-10 tumor-bearing mice. […] Animal body weight and tumor volume were measured every 2- or 3-days throughout the treatment.

C=CC(=O)N1CC[C@@H](n2nc(-c3ccc(Oc4c(F)c(F)cc(F)c4F)cc3F)c3c(N)ncnc32)C1 [Compound 3, 1-((R)-3-(4-amino-3-(2-fluoro-4-(2,3,5,6-tetrafluorophenoxy)phenyl)-1H-pyrazolo[3,4-d]pyrimidin-1-yl)pyrrolidin-1-yl)prop-2-en-1-one]
inhibition at 0.01 µM (TMD-8 cell line; Homo sapiens, TMD8, 48 h, 0.01 uM (10 nM), read-out: Inh % on TMD-8 cell line (AVG)): 46.1% | inhibition at 0.1 µM (TMD-8 cell line; Homo sapiens, TMD8, 48 h, 0.1 uM (100 nM), read-out: Inh % on TMD-8 cell line (AVG)): 59.6% | inhibition at 1 µM (TMD-8 cell line; Homo sapiens, TMD8, 48 h, 1 uM (1,000 nM), read-out: Inh % on TMD-8 cell line (AVG)): 61.7% | inhibition at 10 µM (TMD-8 cell line; Homo sapiens, TMD8, 48 h, 10 uM, read-out: Inh % on TMD-8 cell line (AVG)): 74.9% | inhibition at 100 µM (TMD-8 cell line; Homo sapiens, TMD8, 48 h, 100 uM, read-out: Inh % on TMD-8 cell line (AVG)): 99.7% | Inh % on TMD-8 cell line (AVG) (TMD-8 cell line; 0.01 uM (10 nM)): 51.66% | Inh % on TMD-8 cell line (AVG) (TMD-8 cell line; 0.1 uM (100 nM)): 52.40% | Inh % on TMD-8 cell line (AVG) (TMD-8 cell line; 1 uM (1,000 nM)): 55.05% | Antitumor effect (%) (WSU-DLCL2 xenograft; FIG. 8, 28 days, 10 mg/kg): 22% | Antitumor effect (%) (WSU-DLCL2 xenograft; FIG. 8, 28 days, 30 mg/kg): 30% | Antitumor effect (%) (WSU-DLCL2 xenograft; FIG. 8, 28 days, 45 mg/kg): 32% | Antitumor effect (%) (WSU-DLCL2 xenograft; FIG. 9, 18 days, 5 mg/kg): 4% | Antitumor effect (%) (WSU-DLCL2 xenograft; FIG. 9, 18 days, 10 mg/kg): 7% | Antitumor effect (%) (WSU-DLCL2 xenograft; FIG. 9, 18 days, 30 mg/kg): 23% | efficacy / tumor growth (WSU-DLCL2 xenograft; WSU-DLCL2 mice model, FIGS. 8 and 9, triple combination at total 21 mg/kg/day): in line with the efficacy of Ibrutinib
